Tested on: corneal damage in corneal disorder models
Experiment: Test for therapeutic effect on corneal damage (corneal disorder model, exorbital lacrimal gland removed)
Assay type: in vivo, male SD rats
Details: for Effect on corneal damage (in words): male SD rat corneal disorder model; for Effect on corneal damage (in words) / Improvement ratio (%): 0.02% eye drops 6 times a day for 7 days; for Improvement ratio (%) / Mean value of total scores (fluorescein staining of upper, middle and lower parts of the cornea): male SD rat; for Improvement ratio (%): {(control)-(compound)}/{(control)-(normal eye)}x100, control = 0%; for Mean value of total scores (fluorescein staining of upper, middle and lower parts of the cornea): 0.02% in physiological saline instilled into both eyes 6 times a day for 7 days, scored 7 days after start, mean of 8 eyes, each part scored 0-3
Procedure: Test for Therapeutic Effect on Corneal Damage
Using male SD rats, in accordance with the method of Fujihara et al. (Invest. Ophthalmol. Vis. Sci. 42 (1): 96-100 (2001)), corneal disorder models were produced. After the production of the corneal disorder models, the improvement ratio of a corneal damage was evaluated according to the method of Murakami et al. (journal of the eye 21 (1): 87-90 (2004))
A male SD rat was systemically anesthetized by an administration of Nembutal. Subsequently the exorbital lacrimal gland was removed and a corneal damage was induced over a period of 2 months.
Then, 5-[4-[[3-methyl-4-oxo-3,4-dihydro-2-quinazolinyl]methoxy]phenylmethyl]thiazolidine-2,4-dione (Compound A) or N-[(4-methoxyphenoxy)carbonyl]-N-[[4-[2-(5-methyl-2-phenyl-4-oxazolyl)ethoxy]phenyl]methyl]glycine (Compound B) was administered as follows.
A physiological saline solution of Compound A (0.02%) was instilled into both eyes 6 times a day for 7 days (one group consisting of 4 animals, 8 eyes).
A physiological saline solution of Compound B (0.02%) was instilled into both eyes 6 times a day for 7 days (one group consisting of 4 animals, 8 eyes).
In a control group, physiological saline was instilled into both eyes 6 times a day for 7 days (one group consisting of 4 animals, 8 eyes).
Seven days after the start of instillation, the damaged parts of the cornea were stained with fluorescein. For each of the upper, middle and lower parts of the cornea, the degree of fluorescein staining was evaluated by scoring according to the criteria shown below and the mean value of the total scores for each of the above-mentioned parts was calculated.
Further, the mean value of the total scores for the normal eye was also calculated.
• 0: No punctate staining • 1: Scattered staining (punctate, separated staining) • 2: Moderate staining(a part of punctate staining being adjacent) • 3: Heavy staining (punctate, barely separated staining) (Results)
By taking the mean value of the total scores for the control group (physiological saline) as a reference (improvement ratio: 0%), the calculation was carried out according to the calculation formula shown below. Each of the improvement ratios for the Compound A administered group and the Compound B administered group are shown in Table 1 and Table 2. The mean value of the scores is a mean of those of 8 cases, respectively. Improvement ratio (%)={(control)−(the present compound)}/damage degree×100 Damage degree=(control)−(normal eye)

Row | Compound | Effect on corneal damage (in words) | Improvement ratio (%) | Mean value of total scores (fluorescein staining of upper, middle and lower parts of the cornea)
1 | COc1ccc(OC(=O)N(CC(=O)O)Cc2ccc(OCCc3nc(-c4ccccc4)oc3C)cc2)cc1 [Compound B, N-[(4-methoxyphenoxy)carbonyl]-N-[[4-[2-(5-methyl-2-phenyl-4-oxazolyl)ethoxy]phenyl]methyl]glycine] | significantly improve a corneal damage | 42.3% | 5.2
2 | Cn1c(COc2ccc(CC3SC(=O)NC3=O)cc2)nc2ccccc2c1=O (stereo not drawn) [Compound A, 5-[4-[[3-methyl-4-oxo-3,4-dihydro-2-quinazolinyl]methoxy]phenylmethyl]thiazolidine-2,4-dione] | significantly improve a corneal damage | 40.0% | 4.8

— patent publication US7348329B2, “Therapeutic agent for keratoconjunctival disorder” (Santen Pharmaceutical Co., Ltd., priority 2003, dated 2008)
